Like-named read-outs stand apart in the source and are kept apart here. Where no end group is shown, it is not given here.
How the values were obtained:
[1] = phase II, cited from earlier work
[2] = biological target: T1, CETP (Homo sapiens, UniProt P11597); settings: phase II, group with the highest dose; cited from earlier work
T1 construct: host or cells: trial subjects' plasma (not described)
T1 sequence (P11597 18-493): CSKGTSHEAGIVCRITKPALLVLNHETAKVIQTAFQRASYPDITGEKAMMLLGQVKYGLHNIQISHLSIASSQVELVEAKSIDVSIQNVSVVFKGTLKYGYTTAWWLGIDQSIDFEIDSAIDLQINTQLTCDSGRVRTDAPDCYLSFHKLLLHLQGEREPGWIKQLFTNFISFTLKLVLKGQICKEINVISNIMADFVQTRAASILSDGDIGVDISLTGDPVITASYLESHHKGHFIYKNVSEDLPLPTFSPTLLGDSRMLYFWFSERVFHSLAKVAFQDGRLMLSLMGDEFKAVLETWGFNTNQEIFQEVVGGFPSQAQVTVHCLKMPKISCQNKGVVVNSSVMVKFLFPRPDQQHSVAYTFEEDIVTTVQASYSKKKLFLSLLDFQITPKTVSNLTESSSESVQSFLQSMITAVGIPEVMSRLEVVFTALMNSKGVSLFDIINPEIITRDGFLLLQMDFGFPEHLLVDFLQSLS

[3] = phase III, treatment group receiving combination with atorvastatin; cited from earlier work
[4] = biological target: C-terminus peptide of CETP (Homo sapiens, UniProt P11597)
[5] = pH 9.5
[6] = biological target: 10 nm-diameter nascent discoid HDL particles; settings: cited from earlier work

Molecule: COc1cc(F)c(C(C)C)cc1-c1ccc(C(F)(F)F)cc1CN1C(=O)O[C@H](c2cc(C(F)(F)F)cc(C(F)(F)F)c2)[C@@H]1C [Anacetrapib]
- blood pressure ([1]; all cohorts): without the corresponding increase in blood pressure
- increase in HDL, average ([1]; dose 10 mg): 44%
- increase in HDL, average ([1]; dose 40 mg): 86%
- increase in HDL, average ([1]; dose 150 mg): 139%
- increase in HDL, average ([1]; dose 300 mg): 133%

Molecule: CCC(CC)CC1(C(=O)Nc2ccccc2SC(=O)C(C)C)CCCCC1 [Dalcetrapib]
- CETP activity decreased [2]: 36%
- HDL cholesterol increased [2]: 34%

Molecule: CCOC(=O)N1c2ccc(C(F)(F)F)cc2[C@@H](N(Cc2cc(C(F)(F)F)cc(C(F)(F)F)c2)C(=O)OC)C[C@H]1CC [Torcetrapib]
- mortality and cardiovascular events [3]: cases of mortality and cardiovascular events

Molecule: CCCCCCCCCCCC(=O)OC[C@@H](O)COP(=O)([O-])OCC[N+](C)(C)C [lysophosphatidylcholine (C12), 1-Lauril-2-Hydroxi-snglycero 3 phosphocholine]
- secondary structure of the antigen peptide [4]: favored the presentation of the α-helix structure

Molecule: CHLLVDFLQSLS [Y-helix]
- solubility and monomeric state of peptide [5]: allows solubility and keeps the peptide in monomeric state

B1: CETP: proatherogenic hydrophobic glycoprotein that transfers cholesteryl esters and triglycerides among lipoproteins (protein, UniProt P11597 18-493, looked up)
Cholesteryl ester transfer …: T1 sequence (P11597 18-493)
- Kd [6]: 20 to 120 nM

Reference: patent US9539312B2 (UNIVERSIDAD NACIONAL AUTÓNOMA DE MÉXICO, priority 2012, dated 2017)
